Entries after “also recorded” stand apart in the source; their conditions may differ.
Key:
[1] = tested on: subcutaneous PC9 model in nude mice; assay: PC9 xenograft tumour growth inhibition and re-growth in vivo
Experimental: Tumour growth inhibition following dosing of vehicle, osimertinib 25 mg/kg PO QD, AZD5582 2 mg/kg IV QW, or the combination of the two agents for 3 weeks followed by a period of re-growth in the subcutaneous, PC9 model in nude mice. Data are represented as mean ±SEM (n=8 per group) or as tumour volume of individual mouse.
Tumour growth inhibition following dosing of vehicle for 3 weeks, osimertinib 25 mg/kg PO QD for 6 weeks, or osimertinib 25 mg/kg PO QD for 3 weeks followed by the combination of osimertinib 25 mg/kg PO QD and AZD5582 2 mg/kg IV QW for 3 weeks followed by a period of re-growth in the subcutaneous, PC9 model in nude mice. Data are represented as mean±SEM (n=8 per group) or as tumour volume of individual mouse.

[2] = tested on: EGFRm parental cells (HCC2279, HCC2935, HCC4006, II-18, NCI-H1975 and PC9); assay: Incucyte Caspase-3/7 apoptosis assay in EGFRm parental cell lines; format: cell-based, human; settings: panel of 6 EGFRm cell lines; osimertinib 160 nM + Smac mimetic 1 μM vs osimertinib monotherapy; 48 h, normalised to DMSO
Experimental: Data was calculated as the number of apoptotic events divided by cell confluence, and normalised to the values for DMSO control. Data are presented on a log scale to better visualize all cell lines.
FIG. 3: Multiple Smac mimetic molecules enhance osimertinib-induced apoptosis in NCI-H1975 and PC9 cells Caspase-3/7 activation, a direct readout of apoptotic initiation was measured after 48 h of treatment with either osimertinib monotherapy or its combination with 4 distinct Smac mimetic small molecules in NCI-H1975 and PC9 cells. Data was calculated as the number of apoptotic events divided by cell confluence, and normalised to the values for DMSO control.
PC9 is a cell line derived from human lung adenocarcinoma harbouring the activating mutation in EGFR del E746_A750 (Ex19-del). HCC2935 is a cell line derived from a pleural effusion of human lung adenocarcinoma harbouring the activating mutation in EGFR del E746_T751 (Ex19-del). […]
EGFRm parental cells (HCC2279, HCC2935, HCC4006, II-18, NCI-H1975 and PC9) were seeded in 96 well plated at a concentration of 5000 cells/well. […] Cells were then placed on the Incucyte S3 imaging system and both cell confluence and green fluorescence were measured, every 4 hours. After 96 h the experiment was terminated, and apoptosis values calculated by dividing the number of individual green points (apoptosis events) by cell confluence. […]

[3] = tested on: PC9, HCC2935 and NCI-H1975 cells; assay: Incucyte cell confluence: formation and regrowth of osimertinib drug tolerant persister cells; format: cell-based, human
Experimental: HCC2935, NCI-H1975 and PC9 cells were treated with osimertinib, AZD5582 or the combination of the two agents for 10 days, after which time drug was removed to allow regrowth of the cells. Cell confluence was measured on the Incucyte imaging platform as a surrogate for cell number.
Representative images were taken from the cell growth experiments in PC9 and HCC2935 cell lines described in FIG. 4. Cells treated for 10 days with either osimertinib alone or osimertinib in combination with AZD5582, at which time drug was removed from 7 days.
FIG. 6: osimertinib DTPs are sensitive to Smac mimetic treatment. Parental PC9 cells were treated with the combination of osimertinib and 4 distinct Smac mimetics to determine the rate of DTP survival and re-growth. Cell confluence was measured on the Incucyte imaging platform as a surrogate for DTP number.
PC9 is a cell line derived from human lung adenocarcinoma harbouring the activating mutation in EGFR del E746_A750 (Ex19-del). HCC2935 is a cell line derived from a pleural effusion of human lung adenocarcinoma harbouring the activating mutation in EGFR del E746_T751 (Ex19-del). HCC2279 is a cell line derived from a human lung adenocarcinoma bearing the activating mutation in EGFR del Em746_A750. HCC4006 is a cell line derived from a human lung adenocarcinoma bearing the activating mutation in EGFR del E746_A750. […]

[4] = tested on: c-IAP1 and c-IAP2 mRNA (BIRC2 and BIRC3) in PC9, HCC2935 and NCI-H1975 cell lines; assay: RNAseq gene expression of c-IAP1 and c-IAP2 mRNA in EGFRm cell lines after osimertinib treatment; format: cell-based, human; settings: osimertinib acute (24 h) or chronic (14 d, DTP) vs untreated (DMSO), particularly chronic schedule
Experimental: FIG. 1: A subset of EGFRm NSCLC cell lines upregulate the expression of c-IAP1 and c-IAP2 mRNA after prolonged treatment with osimertinib. RNA sequencing (RNAseq) was performed in cells chronically treated with osimertinib (14 days) and compared to untreated (DMSO) or acutely treated (24 h) cells. Levels of BIRC2 mRNA (c-IAP1) and BIC3 mRNA (c-IAP2) were plotted on a log 2 scale.
PC9 is a cell line derived from human lung adenocarcinoma harbouring the activating mutation in EGFR del E746_A750 (Ex19-del). HCC2935 is a cell line derived from a pleural effusion of human lung adenocarcinoma harbouring the activating mutation in EGFR del E746_T751 (Ex19-del). HCC2279 is a cell line derived from a human lung adenocarcinoma bearing the activating mutation in EGFR del Em746_A750. HCC4006 is a cell line derived from a human lung adenocarcinoma bearing the activating mutation in EGFR del E746_A750. II-18 is a cell line derived from a human lung adenocarcinoma bearing the activating mutation in EGFR L858R. NCI-H1975 is a cell line derived from a human lung adenocarcinoma bearing the activating mutation in EGFR L858R and the gatekeeper mutation in EGFR T790M.
The purpose of this experiment was to use RNAseq to analyse gene expression in EGFRm cell lines treated both chronically (14 d) or acutely (24 h) with osimertinib.

## CN[C@@H](C)C(=O)N[C@H](C(=O)N1CCC[C@H]1C(=O)N[C@H]1c2ccccc2C[C@H]1OCC#CC#CCO[C@@H]1Cc2ccccc2[C@@H]1NC(=O)[C@@H]1CCCN1C(=O)[C@@H](NC(=O)[C@H](C)NC)C1CCCCC1)C1CCCCC1 [AZD5582]
[1]; minimal residual disease: osimertinib 21 days, then osimertinib + AZD5582 2 mg/kg IV QW 21 days, vs osimertinib alone 42 days, 2 mg/kg
  tumour growth inhibition / regrowth after treatment release: delay of regrowth; also recorded: enhances the antiproliferative effects of osimertinib
[1]; osimertinib 25 mg/kg PO QD + AZD5582 2 mg/kg IV QW for 21 days vs osimertinib alone for 21 days
  tumour growth inhibition / regrowth after treatment release: delay of regrowth; also recorded: enhances the antiproliferative effects of osimertinib
[2]
  number of apoptotic events (Caspase-3/7 activation) normalised to cell confluence: enhances osimertinib-induced apoptosis
[3]; PC9, HCC2935 or NCI-H1975, 10 days combination with osimertinib (500 nM) then drug removal, vs 10 days osimertinib alone
  percentage confluency (a measure of cell growth): lower percentage confluency; also recorded: enhances the antiproliferative effects of osimertinib
[3]; PC9 and HCC2935, 10 days osimertinib + AZD5582, then drug removed for 7 days
  regrowth of cells after drug removal (representative images): fail to regrow after drug removal

## C=CC(=O)Nc1cc(Nc2nccc(-c3cn(C)c4ccccc34)n2)c(OC)cc1N(C)CCN(C)C [osimertinib, N-(2-{2-dimethylaminoethyl-methylamino}-4-methoxy-5-{[4-(1-methylindol-3-yl)pyrimidin-2-yl]amino}phenyl) prop-2-enamide]
[4]
  mRNAs coding for c-IAP1 and c-IAP2 (BIRC2 and BIRC3) expression: significantly upregulated
